Reference: patent US20250090823A1, “MICRONEEDLE PATCH FOR ENHANCING ACCUMULATION OF PROTOPORPHYRIN IX IN SOLID TUMOR AND PREPARATION METHOD THEREFOR” (SHENZHEN UNIVERSITY, priority 2022, published 2025)

Assays:
[1] = tested on: subcutaneous U87MG glioblastoma; test: Tumor-volume inhibition after 3 repeated PDT, subcutaneous U87MG glioblastoma model; type: in vivo, mouse; conditions: 50 mg/kg CCPCA NPs, 3.4 mg/kg 5-ALA, 635 nm laser 10 min at 6, 12, 24 h, 14 days
Protocol: A specific characterization method is as follows: 20 U87MG model tumor mice with a tumor size of 100 mm^3 are equally divided into 4 experimental groups, namely the MN (+) group with blank microneedle and irradiated with laser, the 5-ALA i.v (+) group with tail intravenous injected with 5-ALA and irradiated with laser, the MN-5-ALA (+) group with 5-ALA microneedle delivery and irradiated with laser, the MN-CCPCA (+) group with transdermal microneedle loaded with 5-ALA and CAT using nanoparticles and irradiated with lase. The doses administered are 50 mg/kg of CCPCA NPs and 3.4 mg/kg of 5-ALA. The mice in the laser treatment group are irradiated with a laser with a wavelength of 635 nm for 10 minutes (200 mW/cm^2) at 6, 12, and 24 h, respectively. The volume of mouse tumor in each group on different days (0, 2, 4, 6, 8, 10, 12, 14) is measured by a vernier caliper.

[2] = tested on: A375 melanoma cells; test: PpIX accumulation (mass) generated in A375 tumor cell by different nanoparticles; type: cell-based; conditions: same concentration of 5-ALA (10.8 μg mL^−1)
From the text: The biological effects of MN-CCPCA in accumulating PpIX in a cell and an in-vivo tumor are studied.

[3] = tested on: A375 tumor cell; test: Dynamic PpIX fluorescence in A375 tumor cell by high-content fluorescence microscopy; type: cell-based; conditions: equal amount of 5-ALA, time after hatching (incubation)
From the text: The dynamic fluorescence value of PpIX generated by an in-vivo cell is monitored in real time by high-content fluorescence microscopy.

[4] = tested on: 4T1 breast cancer subcutaneous tumor; test: Tumor-volume inhibition after PDT, 4T1 breast cancer subcutaneous tumor model; type: in vivo, mouse; conditions: 50 mg/kg CCPCA NPs, 3.4 mg/kg 5-ALA, 635 nm laser 10 min at 12, 24, 36 h, 14 days
From the text: A specific characterization method is as follows: 20 4T1 model tumor mice with a tumor size of 100 mm^3 are equally divided into 4 experimental groups, namely the MN (+) group with blank microneedle and irradiated with laser, the 5-ALA i.v (+) group with tail intravenous injected with 5-ALA and irradiated with laser, the MN-5-ALA (+) group with 5-ALA microneedle delivery and irradiated with laser, the MN-CCPCA (+) group with transdermal microneedle loaded with 5-ALA and CAT using nanoparticles and irradiated with lase. The mice in the laser treatment group are irradiated with a laser with a wavelength of 635 nm for 10 minutes (200 mW/cm^2) at 12, 24, and 36 h, respectively. The doses administered are 50 mg/kg of CCPCA NPs and 3.4 mg/kg of 5-ALA. The volume of mouse tumor in each group on different days (0, 2, 4, 6, 8, 10, 12, 14) is measured by a vernier caliper.

[5] = background statement; cited from earlier work

SMILES	tumor growth inhibition rate [1] [%]	intracellular PpIX content [2] [ng/10^6 cells]	time at which PpIX concentration/intensity in the cell reaches the maximum [3] [h]	tumor growth inhibition rate [4] [%]	time of rapid clearance of PpIX in vivo [5] [h]	time to highest peak of PpIX synthesis in vivo [5]
NCC(=O)CCC(=O)O [5-ALA, 5-aminolevulinic acid]	19.1	35.1±3.3	6	27.5	–	–
C=CC1=C(C)c2cc3[nH]c(cc4nc(cc5[nH]c(cc1n2)c(C)c5CCC(=O)O)C(CCC(=O)O)=C4C)c(C)c3C=C [PpIX, Protoporphyrin IX]	–	–	–	–	≤ 12	about 4 hours
